Test systems include T47D; EKVX; MOLT-4; SK-MEL-2; CAKI-1; CCRF-CEM; SF-539; HOP-62; ACHN; SK-OV-3; KM12; SN12C; SF-295; M14; MCF7; SK-MEL-5; RXF 393; IGROV-1; NCI/ADR-RES.
Assay in all cases: growth of human tumour cells (NCI), 48 h

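Method: 48-hour compound exposure of cells in 96-well plates, five concentrations, linear interpolation of endpoints. The concentration for 50% growth inhibition is given as GI50.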 Activity calls are given as the source filed them. No stated cut-off is given here; in the data, active = GI50 up to about 1.1 µM and inactive = higher.

For `CN(CCC(=O)N1CC(CCl)c2ccc([N+](=O)[O-])cc21)CCC(=O)N1CC(CCl)c2ccc([N+](=O)[O-])cc21` (stereo not drawn), the GI50 is 25.1 µM (inactive) in the assay with T47D; 12.7 µM (inactive) in the assay on EKVX; 4.25 µM (inactive) with MOLT-4; 13.2 µM (inactive) in the assay on SK-MEL-2; 18.7 µM (inactive) in the assay with CAKI-1; 15.9 µM (inactive) in the assay with CCRF-CEM. Moreover, the GI50 with SF-539 was 14.6 µM (inactive); in the assay with HOP-62, 33.7 µM (inactive); in the assay on ACHN, 0.074 µM (active); with SK-OV-3 it was 29.6 µM (inactive); in the assay with KM12, 4.72 µM (inactive); in the assay with SN12C it was 19 µM (inactive). Also, the GI50 in the assay on SF-295 is 13.7 µM (inactive); in the assay on M14, 10.1 µM (inactive); in the assay on MCF7, 11.4 µM (inactive); with SK-MEL-5, 12.3 µM (inactive).
As to `C=C1C2C[C@@H]3O[C@H]4C[C@H]5O[C@@]6(C[C@@H]7O[C@]8(C[C@H](C)[C@@H]9O[C@@H]%10CC(C=O)O[C@@H]%10C[C@@H]9O8)C[C@H](C)[C@@H]7O6)C[C@H]5O[C@H]4[C@H](C)[C@H]3OC(=O)C[C@H]3CC[C@@H]4OC5[C@H]6O[C@]7(CC[C@H]8CC(=C)[C@H](CC[C@@H](C[C@H]1C)O2)O8)CC6O[C@@H]5[C@@H](O7)[C@H]4O3` (stereo partly drawn), the GI50 with RXF 393, in the assay on EKVX, with MOLT-4, in the assay on CAKI-1, in the assay with HOP-62 and in the assay on ACHN was < 0.0001 µM (active) throughout. For the same molecule, the GI50 in the assay on IGROV-1 was < 0.0001 µM (active); with KM12, < 0.0001 µM (active); in the assay with SN12C it was 0.000179 µM (active); in the assay with SF-295, < 0.0001 µM (active); with M14 it was < 0.0001 µM (active); in the assay on MCF7 it was < 0.0001 µM (active). Further, the GI50 in the assay on NCI/ADR-RES was 0.000951 µM (active); in the assay with SK-MEL-5, < 0.0001 µM (active).
For `CN(C)CCNC(=O)c1cc([N+](=O)[O-])ccn1`, the GI50 in the assay on RXF 393 is 41.6 µM (inactive); in the assay with T47D, 30.3 µM (inactive); in the assay on EKVX, > 100 µM (inactive); in the assay with MOLT-4, 23.1 µM (inactive); in the assay on SK-MEL-2, 24.2 µM (inactive); in the assay with CAKI-1, 34 µM (inactive). Besides, the GI50 with CCRF-CEM was 31.6 µM (inactive); in the assay on SF-539, 22.8 µM (inactive); with HOP-62 it was 31.4 µM (inactive); with ACHN it was 36.7 µM (inactive); in the assay on SK-OV-3, 70.3 µM (inactive); with IGROV-1, 25.9 µM (inactive). The GI50 in the assay on KM12 is 32.8 µM (inactive); with SN12C it was 23.8 µM (inactive); in the assay with SF-295, 26.8 µM (inactive); with M14 it was 36.7 µM (inactive); in the assay with MCF7 it was 16.6 µM (inactive); in the assay with SK-MEL-5, 18.6 µM (inactive).
Consider `COc1ccc(N2/C(=N/c3ccccc3)SC(=N/S(=O)(=O)c3ccccc3)/C2=N\S(=O)(=O)c2ccccc2)cc1`, for which the GI50 was 12.8 µM (inactive) in the assay with RXF 393; 0.298 µM (active) with T47D; 22.6 µM (inactive) with EKVX; 17.8 µM (inactive) in the assay on MOLT-4; 20 µM (inactive) in the assay on CCRF-CEM; 26.7 µM (inactive) in the assay on HOP-62. For the same molecule, the GI50 was 23.3 µM (inactive) in the assay with ACHN; 13 µM (inactive) in the assay on IGROV-1; 38.8 µM (inactive) in the assay with KM12; 15.8 µM (inactive) in the assay on SN12C; 33.7 µM (inactive) in the assay on M14; 18.7 µM (inactive) in the assay on MCF7. In addition, in the assay on SK-MEL-5, the GI50 was 16.6 µM (inactive).
Consider `O=C(COc1ccc(OCC(=O)N2C(=O)CC(=O)N(c3ccc(Cl)cc3)C2=S)cc1)N1C(=O)CC(=O)N(c2ccc(Cl)cc2)C1=S`, for which the GI50 in the assay on RXF 393 is 31.6 µM (inactive); in the assay with EKVX, 42.2 µM (inactive); in the assay with MOLT-4, 17.9 µM (inactive); in the assay with SK-MEL-2, 26.3 µM (inactive); in the assay on ACHN, 27.4 µM (inactive); with SK-OV-3 it was 35.4 µM (inactive). For the same molecule, the GI50 is 10.8 µM (inactive) with IGROV-1; 15.7 µM (inactive) with KM12; 42 µM (inactive) in the assay with SN12C; 34 µM (inactive) with SF-295; 32 µM (inactive) in the assay with M14; 35.1 µM (inactive) with MCF7. The results for the GI50 with NCI/ADR-RES and in the assay on SK-MEL-5 were 22.9 µM (inactive) and 29.7 µM (inactive), respectively.
As to `COC(=O)c1c(C)cccc1/C=C1\Cc2ccc(C)c(C)c2C1=O`, the GI50 was 86.5 µM (inactive) in the assay on RXF 393; 76.7 µM (inactive) with T47D; > 100 µM (inactive) in the assay with EKVX; 93.8 µM (inactive) in the assay with MOLT-4; > 100 µM (inactive) in the assay with SK-MEL-2; > 100 µM (inactive) in the assay on CAKI-1. The GI50 in the assay on CCRF-CEM was > 10 µM (inactive); with SF-539, > 100 µM (inactive); with HOP-62 it was 41.7 µM (inactive); with ACHN, > 100 µM (inactive); in the assay with IGROV-1, > 100 µM (inactive); in the assay on KM12 it was > 100 µM (inactive). Further, the GI50 in the assay on SN12C was > 100 µM (inactive); in the assay with SF-295, > 100 µM (inactive); in the assay with M14, 52.4 µM (inactive); with MCF7 it was > 100 µM (inactive); with SK-MEL-5, > 100 µM (inactive).
On to `COC(=O)C(=O)C(C(=O)C(=O)Nc1ccc(C)cc1C)c1nc2ccc(Cl)cc2nc1O` (stereo not drawn), for which the GI50 in the assay with RXF 393 is > 100 µM (inactive); in the assay on EKVX, 34.6 µM (inactive); with MOLT-4, > 100 µM (inactive); with SK-MEL-2, > 100 µM (inactive); in the assay on CAKI-1, > 100 µM (inactive); in the assay on CCRF-CEM, > 100 µM (inactive). Also, the GI50 with SF-539, with HOP-62, in the assay on ACHN, with SK-OV-3, in the assay with IGROV-1 and in the assay with KM12 was > 100 µM (inactive) throughout. The GI50 in the assay with SN12C, in the assay with SF-295, in the assay with M14, with MCF7, in the assay on NCI/ADR-RES and with SK-MEL-5 was > 100 µM (inactive) in each case.
In the case of `Cc1cccc(/C(Br)=C2/OC(=O)c3ccccc32)c1`, the GI50 in the assay with RXF 393, in the assay with EKVX, in the assay with MOLT-4, in the assay on CAKI-1, in the assay on CCRF-CEM and in the assay with SF-539 was > 100 µM (inactive) in each case. Also, the GI50 with HOP-62, with ACHN, in the assay on SK-OV-3, in the assay with IGROV-1, in the assay on KM12 and in the assay with SN12C was > 100 µM (inactive) throughout. Moreover, the GI50 in the assay on SF-295, in the assay with M14, with MCF7 and in the assay with SK-MEL-5 was > 100 µM (inactive) in each case.
With `CC[C@@H](O)C[C@H]1CCC[C@@]2(C[C@@H]3OC(=O)/C=C/[C@@](C)(O)[C@@H](O)[C@H](C)[C@@H](O)[C@H](OC4CCC(N(C)C)C(C)O4)[C@@H](O)[C@](C)(O)CCCCC/C=C/[C@@H]4CC(C)(C)O[C@@]4(O)C[C@H](O2)[C@H]3C)O1` (stereo partly drawn), the GI50 in the assay with RXF 393 was 14.7 µM (inactive); in the assay on T47D, < 0.01 µM (active); in the assay on EKVX, < 0.01 µM (active); with MOLT-4, 1.91 µM (inactive); in the assay on SK-MEL-2, 10.5 µM (inactive); in the assay with CAKI-1, 3.61 µM (inactive). Also, the GI50 in the assay on CCRF-CEM was 15.9 µM (inactive); in the assay on SF-539, 10.9 µM (inactive); with HOP-62, 13.4 µM (inactive); in the assay on ACHN, < 0.01 µM (active); with SK-OV-3, 14.6 µM (inactive); in the assay on IGROV-1, 6.44 µM (inactive). The GI50 is 0.34 µM (active) with KM12; 16.4 µM (inactive) in the assay on SN12C; < 0.01 µM (active) with SF-295; 1.85 µM (inactive) in the assay on M14; < 0.01 µM (active) with MCF7; < 0.01 µM (active) with SK-MEL-5.
As for `Cc1ccc(S(=O)(=O)OC2C(C3COC(C)(C)O3)OC3OC(C)(C)OC32)cc1` (stereo not drawn), the GI50 with RXF 393, with T47D, in the assay on EKVX, in the assay with MOLT-4, in the assay with SK-MEL-2 and with CAKI-1 was > 100 µM (inactive) in each case. The GI50 with CCRF-CEM, with HOP-62, in the assay with ACHN, in the assay on IGROV-1, in the assay with KM12 and in the assay on SN12C was > 100 µM (inactive) in each case. Also, the GI50 in the assay on SF-295, in the assay on M14, in the assay with NCI/ADR-RES and with SK-MEL-5 was > 100 µM (inactive) throughout.
Regarding `CCCCC/C(=N\c1[nH]cnc1C(N)=O)OCC`, the GI50 in the assay on RXF 393 is > 100 µM (inactive); with EKVX it was 32.3 µM (inactive); in the assay on MOLT-4, > 100 µM (inactive); with SK-MEL-2, > 100 µM (inactive); with CAKI-1 it was > 100 µM (inactive); with CCRF-CEM, > 100 µM (inactive). Further, the GI50 in the assay on SF-539, in the assay on HOP-62, in the assay on ACHN, in the assay with SK-OV-3, with IGROV-1 and with KM12 was > 100 µM (inactive) in each case. The GI50 in the assay on SN12C is > 100 µM (inactive); in the assay with SF-295, > 100 µM (inactive); in the assay with M14, 94.2 µM (inactive); in the assay with MCF7, > 100 µM (inactive); in the assay with NCI/ADR-RES, > 100 µM (inactive); in the assay with SK-MEL-5 it was > 100 µM (inactive).
